{"source": "the kinase profiling compilation of Christmann-Franck et al. (2016)", "key": {"NLK (human)": {"molecular_target": "NLK (human) (UniProt Q9UBE8)", "assay": "KINOMEscan competition binding", "conditions": "compound 10.0 µM"}, "CAMKK1 (human)": {"molecular_target": "CAMKK1 (human) (UniProt Q8N5S9)", "assay": "KINOMEscan competition binding", "conditions": "compound 10.0 µM"}, "GAK (human)": {"molecular_target": "GAK (human) (UniProt O14976)", "assay": "KINOMEscan competition binding", "conditions": "compound 10.0 µM"}, "RET (human)": {"molecular_target": "RET (human) (UniProt P07949)", "assay": "KINOMEscan competition binding", "conditions": "compound 10.0 µM"}, "PIP4K2C (human)": {"molecular_target": "PIP4K2C (human) (UniProt Q8TBX8)", "assay": "KINOMEscan competition binding", "conditions": "compound 10.0 µM"}, "MERTK (human)": {"molecular_target": "MERTK (human) (UniProt Q12866)", "assay": "KINOMEscan competition binding", "conditions": "compound 10.0 µM"}, "ADCK4 (human)": {"molecular_target": "ADCK4 (human) (UniProt Q96D53)", "assay": "KINOMEscan competition binding", "conditions": "compound 10.0 µM"}, "MAP3K13 (human)": {"molecular_target": "MAP3K13 (human) (UniProt O43283)", "assay": "KINOMEscan competition binding", "conditions": "compound 10.0 µM"}, "MAP3K1 (human)": {"molecular_target": "MAP3K1 (human) (UniProt Q13233)", "sequence (Q13233 whole entry, looked up)": "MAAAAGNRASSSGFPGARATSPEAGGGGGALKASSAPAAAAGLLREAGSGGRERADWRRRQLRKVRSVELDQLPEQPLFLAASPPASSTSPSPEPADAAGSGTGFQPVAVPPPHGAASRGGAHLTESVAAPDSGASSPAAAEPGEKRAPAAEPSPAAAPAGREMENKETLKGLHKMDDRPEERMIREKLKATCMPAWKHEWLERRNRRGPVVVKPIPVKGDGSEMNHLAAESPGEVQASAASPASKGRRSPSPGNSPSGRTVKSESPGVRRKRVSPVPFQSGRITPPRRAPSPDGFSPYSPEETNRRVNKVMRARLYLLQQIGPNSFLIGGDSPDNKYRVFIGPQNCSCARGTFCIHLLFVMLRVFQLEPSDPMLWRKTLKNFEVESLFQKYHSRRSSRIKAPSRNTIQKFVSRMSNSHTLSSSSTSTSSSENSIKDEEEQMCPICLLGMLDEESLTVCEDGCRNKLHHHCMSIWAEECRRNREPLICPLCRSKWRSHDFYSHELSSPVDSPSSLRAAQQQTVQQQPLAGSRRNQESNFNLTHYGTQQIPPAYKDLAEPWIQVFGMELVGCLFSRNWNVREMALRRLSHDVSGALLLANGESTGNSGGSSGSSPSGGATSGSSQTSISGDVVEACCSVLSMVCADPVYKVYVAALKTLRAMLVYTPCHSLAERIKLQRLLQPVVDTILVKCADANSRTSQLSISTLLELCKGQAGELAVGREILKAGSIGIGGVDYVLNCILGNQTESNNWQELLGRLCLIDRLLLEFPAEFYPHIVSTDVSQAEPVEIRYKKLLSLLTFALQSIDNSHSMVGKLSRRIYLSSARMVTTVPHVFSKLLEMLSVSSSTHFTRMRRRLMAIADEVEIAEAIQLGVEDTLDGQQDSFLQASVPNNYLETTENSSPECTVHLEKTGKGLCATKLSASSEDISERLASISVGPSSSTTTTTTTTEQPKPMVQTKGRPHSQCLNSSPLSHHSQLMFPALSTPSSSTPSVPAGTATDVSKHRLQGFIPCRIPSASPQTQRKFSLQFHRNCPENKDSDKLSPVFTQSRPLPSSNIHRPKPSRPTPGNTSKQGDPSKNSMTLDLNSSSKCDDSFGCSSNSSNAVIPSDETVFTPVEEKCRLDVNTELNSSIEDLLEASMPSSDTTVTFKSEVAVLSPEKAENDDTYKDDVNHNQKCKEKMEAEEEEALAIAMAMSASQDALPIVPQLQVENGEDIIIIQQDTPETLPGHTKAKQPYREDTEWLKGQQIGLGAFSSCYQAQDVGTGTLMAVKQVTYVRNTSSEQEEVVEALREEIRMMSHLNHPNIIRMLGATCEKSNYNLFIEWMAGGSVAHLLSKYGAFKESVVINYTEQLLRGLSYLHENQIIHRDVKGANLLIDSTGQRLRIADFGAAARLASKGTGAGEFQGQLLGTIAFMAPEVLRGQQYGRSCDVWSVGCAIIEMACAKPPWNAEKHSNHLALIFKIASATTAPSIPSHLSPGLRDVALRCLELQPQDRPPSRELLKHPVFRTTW", "assay": "KINOMEscan competition binding", "conditions": "compound 10.0 µM"}, "EPHA3 (human)": {"molecular_target": "EPHA3 (human) (UniProt P29320)", "assay": "KINOMEscan competition binding", "conditions": "compound 10.0 µM"}, "EPHA7 (human)": {"molecular_target": "EPHA7 (human) (UniProt Q15375)", "assay": "KINOMEscan competition binding", "conditions": "compound 10.0 µM"}, "CDK4 CCND3 (human)": {"molecular_target": "CDK4 CCND3 (human) (UniProt P11802+P30281)", "sequence (P11802 whole entry, looked up)": "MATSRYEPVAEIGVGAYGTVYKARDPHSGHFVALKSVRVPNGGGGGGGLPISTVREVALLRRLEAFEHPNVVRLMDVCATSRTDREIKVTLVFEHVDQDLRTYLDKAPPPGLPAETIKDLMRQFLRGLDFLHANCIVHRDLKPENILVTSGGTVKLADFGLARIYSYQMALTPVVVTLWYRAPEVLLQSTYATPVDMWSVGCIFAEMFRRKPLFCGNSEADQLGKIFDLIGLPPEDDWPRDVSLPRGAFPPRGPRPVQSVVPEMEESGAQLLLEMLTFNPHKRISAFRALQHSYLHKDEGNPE", "sequence (P30281 whole entry, looked up)": "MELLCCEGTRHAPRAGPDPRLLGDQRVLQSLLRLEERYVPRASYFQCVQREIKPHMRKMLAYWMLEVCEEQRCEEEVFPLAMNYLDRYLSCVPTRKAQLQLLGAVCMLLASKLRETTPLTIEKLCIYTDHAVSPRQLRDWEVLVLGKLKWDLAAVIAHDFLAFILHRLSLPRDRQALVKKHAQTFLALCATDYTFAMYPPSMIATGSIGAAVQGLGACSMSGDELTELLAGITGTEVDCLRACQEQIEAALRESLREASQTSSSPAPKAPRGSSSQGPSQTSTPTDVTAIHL", "assay": "KINOMEscan competition binding", "conditions": "compound 10.0 µM"}, "YSK4 (human)": {"molecular_target": "YSK4 (human) (UniProt Q56UN5)", "sequence (Q56UN5 whole entry, looked up)": "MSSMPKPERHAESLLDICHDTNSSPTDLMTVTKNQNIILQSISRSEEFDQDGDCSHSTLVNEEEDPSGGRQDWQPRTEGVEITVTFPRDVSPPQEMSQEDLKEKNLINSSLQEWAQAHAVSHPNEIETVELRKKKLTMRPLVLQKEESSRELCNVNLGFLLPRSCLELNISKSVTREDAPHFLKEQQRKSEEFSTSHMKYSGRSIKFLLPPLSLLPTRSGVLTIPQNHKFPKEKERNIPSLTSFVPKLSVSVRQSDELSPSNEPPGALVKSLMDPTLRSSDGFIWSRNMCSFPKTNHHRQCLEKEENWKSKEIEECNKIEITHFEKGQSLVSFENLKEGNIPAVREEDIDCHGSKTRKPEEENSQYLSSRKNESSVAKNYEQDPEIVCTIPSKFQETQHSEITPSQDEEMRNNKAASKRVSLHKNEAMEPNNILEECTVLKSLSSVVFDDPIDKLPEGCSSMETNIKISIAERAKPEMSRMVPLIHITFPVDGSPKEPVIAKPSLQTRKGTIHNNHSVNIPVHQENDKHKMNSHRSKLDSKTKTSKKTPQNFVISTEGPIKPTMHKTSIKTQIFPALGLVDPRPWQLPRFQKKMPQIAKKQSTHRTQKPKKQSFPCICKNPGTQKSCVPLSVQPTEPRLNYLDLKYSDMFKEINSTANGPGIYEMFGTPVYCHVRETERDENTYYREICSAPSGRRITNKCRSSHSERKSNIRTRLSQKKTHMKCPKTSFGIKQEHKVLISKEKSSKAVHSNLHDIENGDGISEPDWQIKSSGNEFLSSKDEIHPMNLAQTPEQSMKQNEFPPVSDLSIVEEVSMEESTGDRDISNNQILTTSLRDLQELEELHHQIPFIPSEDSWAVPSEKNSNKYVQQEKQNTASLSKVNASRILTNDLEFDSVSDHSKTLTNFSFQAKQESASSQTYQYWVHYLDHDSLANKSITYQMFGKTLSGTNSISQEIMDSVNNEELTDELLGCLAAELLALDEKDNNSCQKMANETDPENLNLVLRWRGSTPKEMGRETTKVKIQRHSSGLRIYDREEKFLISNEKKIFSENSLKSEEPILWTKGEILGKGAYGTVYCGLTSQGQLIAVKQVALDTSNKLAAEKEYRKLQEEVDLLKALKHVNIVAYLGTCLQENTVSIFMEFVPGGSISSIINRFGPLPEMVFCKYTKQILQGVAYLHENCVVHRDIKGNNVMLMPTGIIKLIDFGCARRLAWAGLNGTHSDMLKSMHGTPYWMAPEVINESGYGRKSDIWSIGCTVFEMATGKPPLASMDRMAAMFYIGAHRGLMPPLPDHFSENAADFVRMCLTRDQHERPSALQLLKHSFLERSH", "assay": "KINOMEscan competition binding", "conditions": "compound 10.0 µM"}, "PLK3 (human)": {"molecular_target": "PLK3 (human) (UniProt Q9H4B4)", "assay": "KINOMEscan competition binding", "conditions": "compound 10.0 µM"}, "TAOK3 (human)": {"molecular_target": "TAOK3 (human) (UniProt Q9H2K8)", "assay": "KINOMEscan competition binding", "conditions": "compound 10.0 µM"}, "CSK (human)": {"molecular_target": "CSK (human) (UniProt P41240)", "sequence (P41240 whole entry, looked up)": "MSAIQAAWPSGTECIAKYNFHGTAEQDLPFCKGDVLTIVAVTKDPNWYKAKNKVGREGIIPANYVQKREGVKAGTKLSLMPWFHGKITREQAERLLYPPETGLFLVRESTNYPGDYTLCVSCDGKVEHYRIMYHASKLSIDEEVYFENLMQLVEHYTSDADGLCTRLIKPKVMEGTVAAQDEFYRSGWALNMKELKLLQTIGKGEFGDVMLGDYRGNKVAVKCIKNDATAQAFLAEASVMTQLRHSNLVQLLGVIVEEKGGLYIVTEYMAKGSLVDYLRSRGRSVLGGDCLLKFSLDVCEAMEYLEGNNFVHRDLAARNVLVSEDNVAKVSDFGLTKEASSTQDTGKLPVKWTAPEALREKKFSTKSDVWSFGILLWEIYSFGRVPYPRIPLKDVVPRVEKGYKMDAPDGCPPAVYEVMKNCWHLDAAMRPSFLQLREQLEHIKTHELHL", "assay": "KINOMEscan competition binding", "conditions": "compound 10.0 µM"}, "GRK1 (human)": {"molecular_target": "GRK1 (human) (UniProt Q15835)", "assay": "KINOMEscan competition binding", "conditions": "compound 10.0 µM"}, "CHEK1 (human)": {"molecular_target": "CHEK1 (human) (UniProt O14757)", "assay": "KINOMEscan competition binding", "conditions": "compound 10.0 µM"}, "[1]": {"molecular_target": "JAK2 JH1 catalytic (human) (UniProt O60674)", "assay": "KINOMEscan competition binding", "conditions": "compound 10.0 µM"}, "RPS6KA4 KD1 (human)": {"molecular_target": "RPS6KA4 KD1 (human) (UniProt O75676)", "assay": "KINOMEscan competition binding", "conditions": "compound 10.0 µM"}, "CLK2 (human)": {"molecular_target": "CLK2 (human) (UniProt P49760)", "assay": "KINOMEscan competition binding", "conditions": "compound 10.0 µM"}, "SRMS (human)": {"molecular_target": "SRMS (human) (UniProt Q9H3Y6)", "assay": "KINOMEscan competition binding", "conditions": "compound 10.0 µM"}, "[2]": {"tested_on": "FLT3 (human), P36888 [ITD]", "assay": "KINOMEscan competition binding", "conditions": "compound 10.0 µM"}, "[3]": {"tested_on": "FGFR3 (human), P22607 [G697C]", "assay": "KINOMEscan competition binding", "conditions": "compound 10.0 µM"}, "CSNK2A1 (human)": {"molecular_target": "CSNK2A1 (human) (UniProt P68400)", "assay": "KINOMEscan competition binding", "conditions": "compound 10.0 µM"}, "AURKA (human)": {"molecular_target": "AURKA (human) (UniProt O14965)", "assay": "KINOMEscan competition binding", "conditions": "compound 10.0 µM"}, "MAPK9 (human)": {"molecular_target": "MAPK9 (human) (UniProt P45984)", "assay": "KINOMEscan competition binding", "conditions": "compound 10.0 µM"}, "ABL2 (human)": {"molecular_target": "ABL2 (human) (UniProt P42684)", "assay": "KINOMEscan competition binding", "conditions": "compound 10.0 µM"}, "NEK5 (human)": {"molecular_target": "NEK5 (human) (UniProt Q6P3R8)", "assay": "KINOMEscan competition binding", "conditions": "compound 10.0 µM"}, "MAPK15 (human)": {"molecular_target": "MAPK15 (human) (UniProt Q8TD08)", "assay": "KINOMEscan competition binding", "conditions": "compound 10.0 µM"}, "STK33 (human)": {"molecular_target": "STK33 (human) (UniProt Q9BYT3)", "assay": "KINOMEscan competition binding", "conditions": "compound 10.0 µM"}, "WEE1 (human)": {"molecular_target": "WEE1 (human) (UniProt P30291)", "assay": "KINOMEscan competition binding", "conditions": "compound 10.0 µM"}, "TLK2 (human)": {"molecular_target": "TLK2 (human) (UniProt Q86UE8)", "assay": "KINOMEscan competition binding", "conditions": "compound 10.0 µM"}, "PHKG2 (human)": {"molecular_target": "PHKG2 (human) (UniProt P15735)", "assay": "KINOMEscan competition binding", "conditions": "compound 10.0 µM"}, "PKN1 (human)": {"molecular_target": "PKN1 (human) (UniProt Q16512)", "assay": "KINOMEscan competition binding", "conditions": "compound 10.0 µM"}, "PRKDC (human)": {"molecular_target": "PRKDC (human) (UniProt P78527)", "assay": "SelectScreen, TR FRET"}, "PIK3C3 (human)": {"molecular_target": "PIK3C3 (human) (UniProt Q8NEB9)", "sequence (Q8NEB9 whole entry, looked up)": "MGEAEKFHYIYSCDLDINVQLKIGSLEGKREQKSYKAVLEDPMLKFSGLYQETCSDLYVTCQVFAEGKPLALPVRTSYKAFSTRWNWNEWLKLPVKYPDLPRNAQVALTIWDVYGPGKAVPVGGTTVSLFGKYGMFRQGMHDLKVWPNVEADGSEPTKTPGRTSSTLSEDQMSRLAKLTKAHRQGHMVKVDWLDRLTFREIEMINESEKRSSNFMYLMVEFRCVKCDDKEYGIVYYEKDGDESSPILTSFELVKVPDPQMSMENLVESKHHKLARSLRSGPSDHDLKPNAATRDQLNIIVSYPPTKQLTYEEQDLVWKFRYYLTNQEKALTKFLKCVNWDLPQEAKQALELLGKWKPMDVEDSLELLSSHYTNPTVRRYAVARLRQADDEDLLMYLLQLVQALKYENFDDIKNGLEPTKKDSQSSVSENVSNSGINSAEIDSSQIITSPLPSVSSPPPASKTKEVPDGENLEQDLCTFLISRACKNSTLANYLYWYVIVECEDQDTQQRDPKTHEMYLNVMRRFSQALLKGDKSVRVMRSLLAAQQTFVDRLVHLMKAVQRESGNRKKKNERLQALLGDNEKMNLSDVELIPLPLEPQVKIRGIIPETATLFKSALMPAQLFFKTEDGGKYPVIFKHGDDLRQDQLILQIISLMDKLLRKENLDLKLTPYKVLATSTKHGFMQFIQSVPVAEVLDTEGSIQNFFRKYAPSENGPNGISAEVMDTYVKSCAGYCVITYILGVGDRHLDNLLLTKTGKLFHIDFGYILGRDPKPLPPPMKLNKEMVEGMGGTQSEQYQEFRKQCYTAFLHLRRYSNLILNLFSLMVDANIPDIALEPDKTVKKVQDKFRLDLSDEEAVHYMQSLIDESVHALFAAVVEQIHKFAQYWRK", "assay": "SelectScreen, TR FRET"}, "PIK3C2A (human)": {"molecular_target": "PIK3C2A (human) (UniProt O00443)", "assay": "SelectScreen, TR FRET"}, "PI4KA (human)": {"molecular_target": "PI4KA (human) (UniProt P42356)", "assay": "SelectScreen, TR FRET"}, "MTOR (human)": {"molecular_target": "MTOR (human) (UniProt P42345)", "assay": "SelectScreen, TR FRET"}, "PIK3C2B (human)": {"molecular_target": "PIK3C2B (human) (UniProt O00750)", "assay": "SelectScreen, TR FRET"}, "PI4KB (human)": {"molecular_target": "PI4KB (human) (UniProt Q9UBF8)", "assay": "SelectScreen, TR FRET"}}, "data": [{"smiles": "Cc1cc([C@@H](C)Nc2ccccc2C(=O)O)c2nc(N3CCOCC3)cc(=O)n2c1", "values": [{"measurement": "kinase still bound, per cent of control", "setting": "NLK (human)", "value": 100, "unit": "%"}, {"measurement": "kinase still bound, per cent of control", "setting": "CAMKK1 (human)", "value": 91, "unit": "%"}, {"measurement": "kinase still bound, per cent of control", "setting": "GAK (human)", "value": 83, "unit": "%"}, {"measurement": "kinase still bound, per cent of control", "setting": "RET (human)", "value": 96, "unit": "%"}, {"measurement": "kinase still bound, per cent of control", "setting": "PIP4K2C (human)", "value": 94, "unit": "%"}, {"measurement": "kinase still bound, per cent of control", "setting": "MERTK (human)", "value": 100, "unit": "%"}, {"measurement": "kinase still bound, per cent of control", "setting": "ADCK4 (human)", "value": 95, "unit": "%"}, {"measurement": "kinase still bound, per cent of control", "setting": "MAP3K13 (human)", "value": 100, "unit": "%"}, {"measurement": "kinase still bound, per cent of control", "setting": "MAP3K1 (human)", "value": 100, "unit": "%"}, {"measurement": "kinase still bound, per cent of control", "setting": "EPHA3 (human)", "value": 85, "unit": "%"}, {"measurement": "kinase still bound, per cent of control", "setting": "EPHA7 (human)", "value": 87, "unit": "%"}, {"measurement": "kinase still bound, per cent of control", "setting": "CDK4 CCND3 (human)", "value": 62, "unit": "%"}, {"measurement": "kinase still bound, per cent of control", "setting": "YSK4 (human)", "value": 100, "unit": "%"}, {"measurement": "kinase still bound, per cent of control", "setting": "PLK3 (human)", "value": 94, "unit": "%"}, {"measurement": "kinase still bound, per cent of control", "setting": "TAOK3 (human)", "value": 95, "unit": "%"}, {"measurement": "kinase still bound, per cent of control", "setting": "CSK (human)", "value": 98, "unit": "%"}, {"measurement": "kinase still bound, per cent of control", "setting": "GRK1 (human)", "value": 81, "unit": "%"}, {"measurement": "kinase still bound, per cent of control", "setting": "CHEK1 (human)", "value": 64, "unit": "%"}, {"measurement": "kinase still bound, per cent of control", "setting": "[1]", "value": 71, "unit": "%"}, {"measurement": "kinase still bound, per cent of control", "setting": "RPS6KA4 KD1 (human)", "value": 93, "unit": "%"}, {"measurement": "kinase still bound, per cent of control", "setting": "CLK2 (human)", "value": 100, "unit": "%"}, {"measurement": "kinase still bound, per cent of control", "setting": "SRMS (human)", "value": 100, "unit": "%"}, {"measurement": "kinase still bound, per cent of control", "setting": "[2]", "value": 40, "unit": "%"}, {"measurement": "kinase still bound, per cent of control", "setting": "[3]", "value": 100, "unit": "%"}, {"measurement": "kinase still bound, per cent of control", "setting": "CSNK2A1 (human)", "value": 66, "unit": "%"}, {"measurement": "kinase still bound, per cent of control", "setting": "AURKA (human)", "value": 75, "unit": "%"}, {"measurement": "kinase still bound, per cent of control", "setting": "MAPK9 (human)", "value": 69, "unit": "%"}, {"measurement": "kinase still bound, per cent of control", "setting": "ABL2 (human)", "value": 100, "unit": "%"}, {"measurement": "kinase still bound, per cent of control", "setting": "NEK5 (human)", "value": 100, "unit": "%"}, {"measurement": "kinase still bound, per cent of control", "setting": "MAPK15 (human)", "value": 100, "unit": "%"}, {"measurement": "kinase still bound, per cent of control", "setting": "STK33 (human)", "value": 100, "unit": "%"}, {"measurement": "kinase still bound, per cent of control", "setting": "WEE1 (human)", "value": 88, "unit": "%"}, {"measurement": "kinase still bound, per cent of control", "setting": "TLK2 (human)", "value": 100, "unit": "%"}, {"measurement": "kinase still bound, per cent of control", "setting": "PHKG2 (human)", "value": 67, "unit": "%"}, {"measurement": "kinase still bound, per cent of control", "setting": "PKN1 (human)", "value": 100, "unit": "%"}, {"measurement": "IC50", "setting": "PRKDC (human)", "value": 0.0537, "unit": "µM"}, {"measurement": "IC50", "setting": "PIK3C3 (human)", "value": 3.39, "unit": "µM"}, {"measurement": "IC50", "setting": "PIK3C2A (human)", "value": "> 1", "unit": "µM"}, {"measurement": "IC50", "setting": "PI4KA (human)", "value": 8.83, "unit": "µM"}, {"measurement": "IC50", "setting": "MTOR (human)", "value": 3.93, "unit": "µM"}, {"measurement": "IC50", "setting": "PIK3C2B (human)", "value": 0.0541, "unit": "µM"}, {"measurement": "IC50", "setting": "PI4KB (human)", "value": "> 10", "unit": "µM"}]}]}
